Where a name gives a salt, the structure may show the parent alone.
Legend:
[1] = Solubility of the active ingredient in the acceptor medium; type: physicochemical
[2] = In vitro permeation by Franz diffusion cells, mucosa with versus without steel microneedle system (AdminPatch)
Method: (§1) The following test series with the selected active ingredients in each case were performed within the scope of a typical in vitro permeation by means of Franz diffusion cells (volume 10 mL) at 37° C. The used acceptor medium was replaced completely for a new one at predetermined replacement times, and the content of permeated active ingredient amount in these acceptor solutions was determined by means of HPLC.
The contact pressure was 3 N by thumb pressure, monitored by means of a Roberval balance. The pressing time was 10 sec.
A total of 187 microneedles were applied to an area of 0.785 cm^2 (microneedle density=238 per cm^2).
For Example 4, the donor solution was injected (900 μl) onto or into the used dentistry tamponade (length and diameter 1 cm each). The microneedle system was fixed to the underside of the tamponade and was applied to the mucosa surface perpendicularly through the head of the Franz cells and fixed in a defined position by a suitable stopper and with moderate pressure.
Phosphate buffer (pH 5.5) was used as acceptor medium and an addition of 2 wt. % Tween® 20 was used as organic solvent to maintain “sink” conditions. (sink=current solubility at time t of an active ingredient in an acceptor medium of at most 30% of its saturation solubility in this acceptor medium)
A saturated solution of riociguat in clove oil (Primavera® clove bud organic essential oil, Oy-Mittelberg, Germany) was used as donor solution.
(§2) Dermatomised skin from the oesophagus of a pig with a layer thickness of 400 μm was used as skin model.
0.025 molar HEPES buffer (pH 7.4) was used as acceptor medium.
Phosphate buffer (pH 5.5) was used as acceptor medium and an addition of 2 wt. % Tween® 20 was used as organic solvent to maintain “sink” conditions. […]
The surface of the mucosa was treated with the “AdminPatch™” microneedle system (needle length 600 μm) from the company “nanobioSciences” (CA, USA) made of steel with a contact pressure of 3 N by thumb pressure, monitored by means of a Roberval balance for 10 sec. […]

[3] = In vitro permeation by Franz diffusion cells, dissolving microneedle system loaded with active ingredient, applied into the mucosa versus in reverse
Method: as §1, with “HPLC. […]” for “HPLC.”
For preparation, sumatriptan succinate, polyvinylpyrrolidone, Polysorbate 80 and glycerol were dissolved in water with the proportions 5:20:1:1:73 (in each case in wt. %). The finished solution was poured into negative needle moulds made of silicone, the surface of which was coated with a thin platinum layer by vacuum metallisation. The negative moulds were then dried overnight at room temperature. The dried microneedle systems were carefully pressed out from the dies after the drying process and stored under exclusion of moisture until their further use. The active ingredient content was 4.25 mg sumatriptan succinate per 0.785 cm^2 of system or 5.41 mg/cm^2.
The length of the microneedles of the used microneedle system was 500 μm. A total of 600 microneedles were applied to an area of 0.785 cm^2 (microneedle density=764 per cm^2).
as §2
The microneedle system remained in the mucosa throughout the permeation period, the cell head additionally also having been filled with lead balls in order to simulate the in vivo contact pressure (for example between mandible and oral mucosa) in the oral cavity. As protection for the dissolving microneedle system, a separation film based on siliconised PET (polyethylene terephthalate) was also introduced in between in front of the lead balls.

[4] = dissolving microneedle system loaded with sumatriptan base, acceptor phosphate buffer pH 6.0 + 2 wt. % Tween 20, FIG. 9

## CN1CCc2cccc3c2[C@H]1Cc1ccc(O)c(O)c1-3 [apomorphine hydrochloride]
[1]; phosphate buffer (pH 6.8) with 0.1 wt. % L-ascorbic acid
  solubility in acceptor medium: very easily dissolved

## C=C(C)[C@@H]1CCC(C)=C[C@H]1c1c(O)cc(CCCCC)cc1O [cannabidiol]
[2]; saturated cannabidiol solution in clove oil, dentistry tamponade with microneedle system, acceptor phosphate buffer pH 5.5 + 2 wt. % Tween 20, FIG. 4
  active ingredient flux after pretreatment with a microneedle system, factor higher in comparison to administration without pretreatment: 2.0

## CNS(=O)(=O)Cc1ccc2[nH]cc(CCN(C)C)c2c1 [sumatriptan base]
[3]; [4]
  active ingredient flux in the comparative example (system applied in reverse, not penetrating into the mucosa): not possible to measure an active ingredient flux
  active ingredient flux with the microneedle system applied in the mucosa: high active ingredient flux could be observed
[1]; phosphate buffer (pH 6.0) with 2 wt. % Tween 20
  solubility in acceptor medium: very easily dissolved

## CNS(=O)(=O)Cc1ccc2[nH]cc(CCN(C)C)c2c1 [sumatriptan succinate]
[3]; pig, 10 min, pH 7.4
  first permeation value after 10 min, factor higher in comparison to the comparative example: approximately 4
[3]; pig, pH 7.4
  active ingredient flux with the microneedle system applied in the mucosa, factor higher in comparison to the system without penetration into the mucosa: 2.0
[1]; phosphate buffer (pH 7.4) without further additives
  solubility in acceptor medium: very easily dissolved

## CCCCCc1cc(O)c2c(c1)OC(C)(C)[C@@H]1CCC(C)=C[C@@H]21 [tetrahydrocannabinol]
[2]; saturated tetrahydrocannabinol solution in clove oil, acceptor phosphate buffer pH 5.5 + 2 wt. % Tween 20, FIG. 3
  time after which permeated active ingredient could be detected without pretreatment: 3 h
[2]; saturated tetrahydrocannabinol solution in clove oil, value after 3 hours, FIG. 3
  permeated active ingredient without pretreatment, factor lower in comparison to pretreated mucosa: 5

## CC(=O)O[C@]1(C(C)=O)CC[C@H]2[C@@H]3CCC4=CC(=O)CCC4=C3[C@@H](c3ccc(N(C)C)cc3)C[C@@]21C [ulipristal acetate]
[1]; phosphate buffer (pH 7.4) with 2 wt. % Tween 20
  solubility in acceptor medium: very easily dissolved

Reference: patent publication US20240024647A1, “MUCOSA PERFORATION” (LTS LOHMANN THERAPIE-SYSTEME AG, priority 2020, published 2024)
